Results reported in US10993987B2 (Sublimity Therapeutics Limited, priority 2014, dated 2021).

Experiments:
[1] = Example 11 emulsion stability: time point when crystallisation was observed (polarised light microscopy); format: physicochemical; conditions: for emulsion stability compared to sodium dodecyl sulfate (SDS): as aqueous phase surfactant of the cyclosporin emulsion
Procedure: Emulsions were prepared by mixing an oil phase and an aqueous phase, as described in Example 1. The oil phase was consistent for all emulsions of this example. The emulsion aqueous phase mixed was one of three aqueous mixtures. The three aqueous phases differed in the amount of surfactant, 0.7%, 1.3% and 2.5%, and water.
The emulsion was prepared by mixing the oil phase and aqueous phase in a oil:aqueous phase ratio of 1:5. The experiments were performed in triplicate, N=3. In order to replicate current manufacturing conditions as much as possible the following procedure was carried out: • Identical size beakers were used to ensure minimal variation between experiments • Identical submersible magnetic stirrers were placed in each beaker to keep the emulsions under constant magnetic stirring, and the same rpm stir rate used for each • Hot plates were used to maintain a constant emulsion temperature of 65° C. • Emulsions were kept covered with aluminium foil during the process
Sampling of the emulsion was carried out at various time points using disposable pipettes to avoid cross contamination.
(§1) Samples were withdrawn from each emulsion at half hour time intervals starting at time zero (t0) using a disposable pipette. Drops of emulsion were placed on a glass slide, pre heated on a hot plate. The sample was covered with a cover slip and a small amount of pressure applied to form a thin film of emulsion. The samples were allowed to solidify to room temperature before being viewed at ×50 and ×100 objective lens under polarised light to check for the presence of crystals. Results were recorded as optical photomicrographs with three images taken of each emulsion at each time point. Images documenting crystal growth and size with respect to time within the sample emulsion as well as background oil droplet size were collected.

[2] = Example 11 emulsion droplet size by photomicrographs; format: physicochemical
Excerpt: as §1
Photomicrographs of the emulsions enabled the investigation of the droplet size as well as crystal formation. Smaller, more uniform droplet size was preferred.

Row | emulsion stability among tested surfactants ([1]; each concentration (0.7%, 1.3%, 2.5% in aqueous phase)) | SMILES | emulsion stability compared to sodium dodecyl sulfate (SDS) [1] | emulsion droplet characteristics (smaller, more uniform droplet size preferred) [2]
1 | best stability for each concentration | CCCCCCCCCCCCCCCCCCOS(=O)(=O)[O-].[Na+] [Sodium n-Octadecyl Sulfate] | comparable to that of sodium dodecyl sulfate | preferred droplet characteristics were observed
2 |  | CCCCCCCCOS(=O)(=O)[O-].[Na+] [Sodium n-Octyl Sulfate] | comparable to that of sodium dodecyl sulfate | preferred droplet characteristics were observed
